Results taken from paper PMC4481117 (Molecular Pain, 2015).

Columns and labels:
U937 monocytic cells = assay: Chemotaxis migration assay of U937 cells to Dyn A agarose gel; type: cell-based, human; conditions: 10 μM Dyn A in agarose
Procedure: Fig. 7 Chemotactic response of U937 cells to Dyn A. a, schematic representation of the experimental format. U937 cells (5x10^4) were placed in the center of the coverslip between two agar gels, one containing Dyn A and control gel without Dyn A. After 2 h at 37 °C, a series of photographs was taken in the direction of migration at 1-mm intervals to count the number of migrating cells. b , representative images after 2 h of migration show the cells within the starting point (marked with a cross; right panels) and at the border of the Dyn A-containing agar drop (left panels). […] Two bottom panels show the experimental condition with no Dyn A gradient. c, quantification of U937 cells migrated from the initial point after 2 h based on the results shown in A (right panel). Migration of control untreated U937 cells that completely migrated from the initial point of cell placement was assigned a value of 100 %. In contrast, there was no cell migration without a Dyn A gradient (0 %). […] A representative experiment is shown. d, distribution of U937 cells between two gels: Dyn A-containing (on the left) and without Dyn A (on the right). “0” on abscissa corresponds to the initial point where cells were loaded and the numbers show the distance that cells migrated in both directions from the starting point. All cells in each of 10 consecutive fields towards the Dyn A-containing and empty gels were counted and plotted as a distance from the starting point
Chemotaxis assays using U937 monocytic cells were performed on 22 × 22 mm cover slips. 1 % agarose (Life Technologies, Carlsbad, CA) was dissolved in HBSS by heating. After cooling, the agarose solution was mixed with Dyn A to obtain a final concentration of 10 μM. A 10 μl drop of warm agarose solution containing Dyn A was placed at one corner of the cover glass at ~1.5 mm from the edge. A control agarose drop was placed diagonally at the opposite corner of the cover glass. Agarose was allowed to solidify for 5 min, and the cover glasses were placed into wells of the 6-well plate filled with 5 ml of RPMI 1640 + 10 % FBS. A 10-μl aliquot of U937 cells (5x10^4) was loaded in the center of the cover glass and the plate was incubated for 2 h at 37 °C in a humidified atmosphere containing 5 % CO2. In this experimental format, the cells sediment approximately 5 min after loading, forming an ~4 mm circle, and begin to migrate towards the Dyn A-containing agarose drop. […] The photographs were taken at 1-mm intervals in the direction of cell migration towards the dynorphin-containing or control agarose drops without dynorphin A. The number of cells at the starting point and in each of 10 consecutive fields towards the dynorphin-containing and empty gels were counted and plotted as a distance from the starting point.

GST = assay: Solid-phase binding of GST (control); conditions: immobilized Dyn A; % of the αMI-domains; not shown
Procedure: Microtiter plates were coated with different concentrations of the fibrinogen D100 fragment or Dyn A overnight at 4 °C and post-coated with 3 % BSA for 1 h. The GST-αMI-domains in 20 mM Tris–HCl, pH 7.4, 100 mM NaCl, 1 mM MgCl2, 1 mM CaCl2, 0.05 % Tween 20, and 5 % glycerol were added to the wells and incubated for 1.5 h at 22 °C. After washing, the plates were incubated with an anti-GST mAb at a 1:5000 dilution for 1 h at 22 °C. After washing, goat anti-mouse IgG conjugated to alkaline phosphatase was added for 1 h and the binding of the αMI-domains was detected by reaction with p-nitrophenyl phosphate measuring the absorbance at 405 nm. Background binding to BSA was subtracted.

wild-type macrophages = assay: Transwell migration of wild-type peritoneal macrophages to Dyn A; type: cell-based, mouse; conditions: 10 μM Dyn A, 90 min at 37 °C, TG-elicited
Procedure: (§1) Fig. 6 Migration of Mac-1-expressing cells to Dyn A in a Transwell system. a, Mac-1-expressing HEK 293 cells (100 μl at 3 × 10^6 cell/ml) were added to the upper wells of the transwell chamber and their ability to migrate to different concentrations of Dyn A placed in the lower chamber was analyzed. After 16 hours at 37 °C, migrated cells were fixed, stained, and counted. Data are presented as numbers of migrated cells per field ± S.E. for five random fields per well. The figure is representative of 5 experiments. b, Mac-1-expressing or wild-type HEK 293 cells were added to the upper wells of the transwell chamber and their ability to migrate to 10 μM Dyn A placed in the lower chamber was analyzed as in A. Some Mac-1-HEK293 cells were pretreated with 20 μg/ml of mAbs 44a (anti-αM), IB4 (anti-β2) or OKM1 (non function-blocking anti-αM) or medium alone before addition to the upper wells. ***, medium alone. […] The number of migrated cells was determined as in A. Data are presented as number of migrated cells per field ± S.E. for five random fields per well. […]
(§2) Migration assays with wild-type and Mac-1-expressing HEK293 cells and purified macrophages using Transwell inserts (5 μm pore size) were performed as previously described. […] The photographs were taken using a 20x objective and cells in […] and cells were counted. […]

wild-type HEK293 cells = assay: Transwell migration of wild-type HEK293 cells to Dyn A; type: cell-based, Human; conditions: 16 h at 37 °C
Procedure: as §1, §2

## CC[C@H](C)[C@H](NC(=O)[C@H](CCCNC(=N)N)NC(=O)[C@H](CCCNC(=N)N)NC(=O)[C@H](CC(C)C)NC(=O)[C@H](Cc1ccccc1)NC(=O)CNC(=O)CNC(=O)[C@@H](N)Cc1ccc(O)cc1)C(=O)N[C@@H](CCCNC(=N)N)C(=O)N1CCC[C@H]1C(=O)N[C@@H](CCCCN)C(=O)N[C@@H](CC(C)C)C(=O)N[C@@H](CCCCN)C(=O)N[C@@H](Cc1c[nH]c2ccccc12)C(=O)N[C@@H](CC(=O)O)C(=O)N[C@@H](CC(N)=O)C(=O)N[C@@H](CCC(N)=O)C(=O)O [Dyn A]
U937 monocytic cells; 2 h, no inhibitor
  Distance travelled by majority of untreated cells towards Dyn A: ~ 8 mm
U937 monocytic cells; 2 h at 37 °C
  Chemotaxis of U937 cells (in words): efficiently migrated along the gradient of Dyn A
GST
  Binding of GST to Dyn A relative to the αMI-domains: less than 5%
wild-type macrophages
  Migration of wild-type macrophages (in words): migrated to Dyn A
wild-type HEK293 cells
  Migration of wild-type HEK293 cells (in words): did not migrate
